Where a name gives a salt, the structure may show the parent alone.
target: T1, full length SGK1 (Homo sapiens, UniProt O00141); experiment: SGK1 inhibition Assay A (Caliper LabChip electrophoretic separation of fluorescent peptide substrate and phosphorylated product); assay type: biochemical; conditions: Assay A; 20 μM ATP, 40 min incubation; read-out: SGK1 IC50
T1 construct: 125 μM full length SGK1 (Life Technologies Part #PR7358A); purchased Life Technologies PR7358A
T1 sequence (O00141 1-431): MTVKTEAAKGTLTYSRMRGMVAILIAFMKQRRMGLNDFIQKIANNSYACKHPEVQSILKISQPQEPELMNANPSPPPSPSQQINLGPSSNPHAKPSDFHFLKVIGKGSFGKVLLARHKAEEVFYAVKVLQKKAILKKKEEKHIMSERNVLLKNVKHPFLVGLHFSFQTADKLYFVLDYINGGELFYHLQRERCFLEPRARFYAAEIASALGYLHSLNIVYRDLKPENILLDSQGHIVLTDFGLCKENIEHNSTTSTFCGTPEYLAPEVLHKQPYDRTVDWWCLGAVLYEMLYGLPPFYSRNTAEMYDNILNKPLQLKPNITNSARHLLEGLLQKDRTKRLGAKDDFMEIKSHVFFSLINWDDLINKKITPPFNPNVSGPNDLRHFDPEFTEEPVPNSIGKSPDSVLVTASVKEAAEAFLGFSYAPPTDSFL

| Molecule | IC50 [nM] |
| --- | --- |
| CC(=O)N1CC=C(c2cc(OCCN(C)C)c(C(=O)N[C@@H]3CCCN(c4cc(C5=CCN(C(C)=O)C5)n5ncnc(N)c45)C3)s2)C1 [Example 910, (R)-5-(1-acetyl-2,5-dihydro-1H-pyrrol-3-yl)-N-(1-(7-(1-acetyl-2,5-dihydro-1H-pyrrol-3-yl)-4-aminopyrrolo[2,1-f][1,2,4]triazin-5-yl)piperidin-3-yl)-3-(2-(dimethylamino)ethoxy)thiophene-2-carboxamide] | 59 |
| CS(=O)(=O)N1CC=C(c2cc(N3CCC[C@@H](NC(=O)c4ccnc(F)c4)C3)c3c(N)ncnn23)C1 [Example 117, (R)—N-(1-(4-amino-7-(1-(methylsulfonyl)-2,5-dihydro-1H-pyrrol-3-yl)pyrrolo[2,1-f][1,2,4]triazin-5-yl)piperidin-3-yl)-2-fluoroisonicotinamide, TFA] | 6 |
| COc1cnccc1C(=O)N[C@@H]1CCCN(c2cc(-c3ccc(S(C)(=O)=O)cc3)n3ncnc(N)c23)C1 [Example 68, (R)-N-(1-(4-amino-7-(4-(methylsulfonyl)phenyl)pyrrolo[2,1-f][1,2,4]triazin-5-yl)piperidin-3-yl)-3-methoxyisonicotinamide] | 287 |
| Cc1cc(C(=O)N[C@@H]2CCCN(c3cc(-c4ccc(S(C)(=O)=O)cc4)n4ncnc(N)c34)C2)on1 [Example 63, (R)-N-(1-(4-amino-7-(4-(methylsulfonyl)phenyl)pyrrolo[2,1-f][1,2,4]triazin-5-yl)piperidin-3-yl)-3-methylisoxazole-5-carboxamide, TFA] | 105 |
| Nc1ncnn2c(-c3ccc(N4CCOCC4)cc3)cc(N3CCC[C@@H](NC(=O)c4ccc(Cl)s4)C3)c12 [Example 223, (R)-N-(1-(4-amino-7-(4-morpholinophenyl)pyrrolo [2,1-f][1,2,4]triazin-5-yl)piperidin-3-yl)-5-chlorothiophene-2-carboxamide, TFA] | 199 |
| CCn1ccc(C(=O)N[C@@H]2CCCN(c3cc(C4=CCN(C(C)=O)C4)n4ncnc(N)c34)C2)n1 [Example 742, (R)-N-(1-(7-(1-acetyl-2,5-dihydro-1H-pyrrol-3-yl)-4-aminopyrrolo[2,1-f][1,2,4]triazin-5-yl)piperidin-3-yl)-1-ethyl-1H-pyrazole-3-carboxamide] | 135 |
| (R)-N-(1-(7-(1-acetyl-2,5-dihydro-1H-pyrrol-3-yl)-4-aminopyrrolo[2,1-f][1,2,4]triazin-5-yl)piperidin-3-yl)-5-chloro-3-(piperidin-4-yloxy)thiophene-2-carboxamide [Example 575] | 1 |
| CC(=O)N1CC=C(c2cc(N3CCC[C@@H](NC(=O)c4cccc(N(C)C)c4)C3)c3c(N)ncnn23)C1 [Example 465, (R)-N-(1-(7-(1-acetyl-2,5-dihydro-1H-pyrrol-3-yl)-4-aminopyrrolo[2,1-f][1,2,4]triazin-5-yl)piperidin-3-yl)-3-(dimethylamino)benzamide] | 64 |
| Nc1ncnn2c(-c3ccc(Cl)cc3)cc(N3CCC[C@@H](NC(=O)c4ccc(Cl)s4)C3)c12 [Example 235] | 37 |
| Cn1cnc(C(=O)N[C@@H]2CCCN(c3cc(-c4ccc(S(C)(=O)=O)cc4)n4ncnc(N)c34)C2)c1 [Example 48, (R)-N-(1-(4-amino-7-(4-(methylsulfonyl)phenyl)pyrrolo[2,1-f][1,2,4]triazin-5-yl)piperidin-3-yl)-1-methyl-1H-imidazole-4-carboxamide] | 307 |
| N#Cc1ccc(-c2cc(N3CCC[C@@H](NC(=O)c4nc5ccccc5o4)C3)c3c(N)ncnn23)cn1 [Example 650, (R)-N-(1-(4-amino-7-(6-cyanopyridin-3-yl)pyrrolo[2,1-f][1,2,4]triazin-5-yl)piperidin-3-yl)benzo[d]oxazole-2-carboxamide] | 54 |

Further lines, results first:

| IC50 [nM] | Molecule |
| --- | --- |
| 3 | CS(=O)(=O)c1ccc(-c2cc(N3CCC[C@@H](NC(=O)c4ccc(Cl)s4)C3)c3c(N)ncnn23)cc1 [Example 94, (R)-N-(1-(4-amino-7-(4-(methylsulfonyl)phenyl)pyrrolo[2,1-f][1,2,4]triazin-5-yl)piperidin-3-yl)-5-chlorothiophene-2-carboxamide] |
| 4 | COC(=O)N1CC=C(c2cc(N3CCC[C@@H](NC(=O)c4sc(C(F)F)cc4OCCN)C3)c3c(N)ncnn23)C1 [Example 324, methyl (R)-3-(4-amino-5-(3-(3-(2-aminoethoxy)-5-(difluoromethyl)thiophene-2-carboxamido)piperidin-1-yl)pyrrolo[2,1-f][1,2,4]triazin-7-yl)-2,5-dihydro-1H-pyrrole-1-carboxylate] |
| 6 | COc1cc(-c2cc(N3CCC[C@@H](NC(=O)c4cccc(N5CCN(C)CC5)n4)C3)c3c(N)ncnn23)ccn1 [Example 786, (R)-N-(1-(4-amino-7-(2-methoxypyridin-4-yl)pyrrolo[2,1-f][1,2,4]triazin-5-yl)piperidin-3-yl)-6-(4-methylpiperazin-1-yl)picolinamide] |
| 29 | CC(=O)N1CCC(Oc2cc(C(F)F)sc2C(=O)N[C@@H]2CCCN(c3cc(-c4ccc(C#N)nc4)n4ncnc(N)c34)C2)CC1 [Example 416, (R)-3-((1-acetylpiperidin-4-yl)oxy)-N-(1-(4-amino-7-(6-cyanopyridin-3-yl)pyrrolo[2,1-f][1,2,4]triazin-5-yl)piperidin-3-yl)-5-(difluoromethyl)thiophene-2-carboxamide] |
| 7 | CC(=O)N1CC=C(c2cc(N3CCC[C@@H](NC(=O)c4sc(Cl)cc4OC4CCNCC4F)C3)c3c(N)ncnn23)C1 (stereo partly drawn) [Example 603, N-((R)-1-(7-(1-acetyl-2,5-dihydro-1H-pyrrol-3-y1)-4-aminopyrrolo[2,1-f][1,2,4]triazin-5-yl)piperidin-3-y1)-5-chloro-3-((3-fluoropiperidin-4-yl)oxy)thiophene~2-carboxamide] |
| 3 | CC(=O)N1CC=C(c2cc(N3CCCC(NC(=O)c4sc(Cl)cc4OC4CCNC(C)C4)C3)c3c(N)ncnn23)C1 (single isomer, unassigned) [Example 622] |
| 5 | COc1cc(C(=O)N[C@@H]2CCCN(c3cc(-c4ccncc4)n4ncnc(N)c34)C2)ccn1 [Example 127, N-[(3R)-1-[4-amino-7-(pyridin-4-yl)pyrrolo[2,1-f][1,2,4]triazin-5-yl]piperidin-3-yl]-2-methoxypyridine-4-carboxamide] |
| 3 | CC(=O)N1CC=C(c2cc(N3CCC[C@@H](NC(=O)c4sc(Cl)cc4OC4CCNCC4F)C3)c3c(N)ncnn23)C1 (stereo partly drawn) [Example 602, N-((R)-1-(7-(1-acetyl-2,5-dihydro-1H-pyrrol-3-yl)-4-aminopyrrolo[2,1-f][1,2,4]triazin-5-y1)piperidin-3-y1)-5-chloro-3-((3-fluoropiperidin-4-yl)oxy)thiophone-2-carboxamide] |
| 4 | CN(C)CCOc1cc(Cl)sc1C(=O)N[C@@H]1CCCN(c2cc(-c3ccc(-n4cnnn4)c(F)c3)n3ncnc(N)c23)C1 [Example 188] |
| 19 | CC(=O)N1CC=C(c2cc(N3CCC[C@@H](NC(=O)c4sc(Cl)cc4OC4CCNCC4F)C3)c3c(N)ncnn23)C1 (single isomer, unassigned) [Example 600D] |
| 21 | N#Cc1ccc(-c2cc(N3CCC[C@@H](NC(=O)c4cc5ccccc5[nH]4)C3)c3c(N)ncnn23)cn1 [Example 509, (R)-N-(1-(4-amino-7-(6-cyanopyridin-3-yl)pyrrolo[2,1-f][1,2,4]triazin-5-yl)piperidin-3-yl)-1H-indole-2-carboxamide] |

— patent US20260250290A1 (BRISTOL-MYERS SQUIBB COMPANY, priority 2023, published 2026)
